# Assays:
# S2 cells [1] = test: Centrosome clustering defects in S2 cells after short drug treatment; type: cell-based, Drosophila
# Method: In addition to genes that likely contribute to the bundling and organization of spindle MTs, unexpectedly, genes involved in the organization and regulation of the actin cytoskeleton, such as the formin Form3/INF2 were also identified (Chhabra, E. S. and Higgs, H. N. (2006) J Biol Chem 281:26754-26767). […] Experiments using a brief (2 hr) treatment with small molecules that disrupt the actin cytoskeleton similarly induce multipolar mitoses.
# More specifically, cells were treated with Latrunculin (40 μM LatA), Cytochalasin D (20 μM) for 2 hours and the percentage of centrosome clustering defects was determined.
# Next, it was determined if cortical contraction is required for centrosome clustering. Cells were exposed, for 2 hours, to soluble tetravalent lectin concanavalin A (Con-A), which crosslinks the plasma membrane and thus globally blocks cortical contraction (Canman, J. C. and Bement, W. M. (1997) J Cell Sci 110 (Pt 16):1907-1917). The percentage of centrosome clustering defects after Con-A treatment was determined.
# Low concentrations of calyculin A (CA) inhibit the myosin light chain phosphatase (MLCP) and promote myosin II activation without altering its distribution (Gupton, S. M. and Waterman-Storer, C. M. (2006) Cell 125:1361-1374). […] Thus, in cells with extra centrosomes, actin and actin-based contractility influence whether mitosis is bipolar or multipolar.
# It was also determined whether the actin and intrinsic spindle forces act cooperatively to prevent multipolar mitoses. […] To farther evaluate this idea, time-lapse spinning disc microscopy was used to define the trajectory of centrosome movement in Ned-depleted S2 cells. […] Moreover, the bulk of the centrosome movement was directed away from the spindle and towards the cell cortex. […] Thus, cortical forces collaborate with intrinsic spindle bundling forces to organize multiple centrosomes.
# MDA-231 cells = test: Multipolar spindles in MDA-231 cells; type: cell-based
# Method: The parallel between Drosophila and mammalian cells extended to the genetic requirements for centrosome clustering. To examine this further, siRNA experiments were performed with mammalian HSET (Ned homolog) and Myo10 genes, as follows. Mixed pools (ON-TARGETplus and SMART pools) of 4 different oligos of siRNAs against human HSET, human Myo10 and mouse Myo10 were purchased from Dharmacon, siRNA against mouse HSET was purchased from Ambion. Non-specific scrambled siRNA was used as control (Ambion). The oligo sequence of the siRNAs are set forth below in Table 2:
# Cells were transfected with Lipofectamine RNAiMAX (Invitrogen) with a final siRNA concentration of 50 nM according to the manufacturer's instructions. Cells were analyzed/harvested three days after transfection (unless specified otherwise). FIGS. 5 and 6 show the results of Western blots showing the depletion of HSET (FIG. 5) or Myo10 (FIG. 6) after three days of siRNA in MDA-231 and MCF-7 cells. FIG. 7 is a bar graph showing the percentage of cells with multipolar spindles in MCF-7 or MDA-231 cells upon treatment with siRNA of HSET or Myo10. […] As in S2 cells, Myo10-induced multipolarity is not a consequence of cytokinesis failure.
# Several lines of evidence support this hypothesis. First, live-cell imaging was used to correlate interphase cell shape with the pattern of cell division during mitosis. MDA-231 (breast cancer cells containing extra centrosomes) that assumed an elongated or polarized shape in interphase, almost uniformly underwent bipolar divisions. […] Second, in tetraploid BSC-1 cells, whose thick RFs are readily visualized by DIC imaging, it was noted that a strong correlation between the positioning of the RFs and whether cells underwent a bipolar (bipolar distribution of RFs) or multipolar division (isotropic distribution of RFs). Third, RFs accumulate specific proteins, such as the ERM protein ezrin, which are implicated in cortical heterogeneity and thus local force generation on astral MTs. […]
# MCF-7 = test: Multipolar spindles in cells with normal centrosome number; type: cell-based; settings: cells plated on FN 30 μg/ml
# Method: (§1) To determine the effect of transient actin disruption in mammalian cells, the cell lines MCF-7, MDA-231, MMEDX 4N and N1E-115 were treated with DMSO, LatA (5 μM) or Dihydrocytochalasin B (DCB) (10 μM) for 2 hours. The MCF-7 cell line contains 2 centrosomes whereas the other cell lines contain greater than 2 centrosomes. […] These multipolar spindles result from declustering of extra centrosomes and were not due to the splitting/fragmentation of centrioles. Actin presumably influences centrosome positioning via forces on astral MTs.
# Cells were transfected with Lipofectamine RNAiMAX (Invitrogen) with a final siRNA concentration of 50 nM according to the manufacturer's instructions. Cells were analyzed/harvested three days after transfection (unless specified otherwise). FIGS. 5 and 6 show the results of Western blots showing the depletion of HSET (FIG. 5) or Myo10 (FIG. 6) after three days of siRNA in MDA-231 and MCF-7 cells. […]
# Several lines of evidence support this hypothesis. […] Second, in tetraploid BSC-1 cells, whose thick RFs are readily visualized by DIC imaging, it was noted that a strong correlation between the positioning of the RFs and whether cells underwent a bipolar (bipolar distribution of RFs) or multipolar division (isotropic distribution of RFs). […]
# [2] = test system: MDA-231, MMEDX 4N and N1E-115; test: Multipolar spindles after transient actin or astral MT disruption, cell lines with multiple centrosomes; type: cell-based
# Method: as §1
# S2 cells [3] = test: Live cell imaging of centrosome clustering in S2 cells; type: cell-based, Drosophila
# Method: Relative to controls (14.7±6.4 min), there was a 1.5 fold delay in centrosome clustering in 13/15 LatA-treated cells (22.1±12.3 min). […] The cell cycle delay induced by LatA treatment is likely due to activation of the SAC, as evidenced by prominent labeling of kinetochores with BubR1 in LatA-treated cells.
# [4] = 2 hours, LatA 5 μM, DCB 10 μM, vs DMSO
compound,measurement,setting,value
concanavalin A [Con-A],centrosome clustering defects / multipolar mitoses,S2 cells [1]; 2 hours treatment,induced centrosome clustering defects
CC(C)(C)n1nc(-c2ccc(Cl)cc2)c2c(N)ncnc21 [PP2],multipolar spindles,MDA-231 cells; src kinase inhibitor PP2,induced multipolar spindles
fibronectin [FN],frequency of multipolar spindles,MCF-7,not in MCF-7 cells
same,frequency of multipolar spindles,MDA-231 cells; cells plated on FN 30 μg/ml,increased the frequency of multipolar spindles
COC(=O)Nc1nc2ccc(C(=O)c3cccs3)cc2[nH]1 [nocodazole],frequency of multipolar spindles,"[2]; low dose nocodazole, cells with extra centrosomes",increased the frequency of multipolar spindles
"COC[C@@H]([C@H](O)[C@H](O)C(=O)NCC[C@H](C)c1nc(/C=C/C[C@@H]2O[C@]3(C[C@@H](O)[C@@H]2C)O[C@H]([C@H](C[C@H](O)[C@H](C)[C@H](O)[C@H](C)/C=C(C)/C(C)=C/C=C/C(C)=C\C#N)OC)[C@H](OP(=O)(O)O)C3(C)C)co1)N(C)C [CA, calyculin A]",centrosome clustering defect induced by Ned RNAi,S2 cells [1]; CA treatment of Ned RNAi cells,partially rescued
same,centrosome clustering defects,"S2 cells [1]; wild type S2 cells, low concentration CA, 15% without",9%
same,FN-induced increase of multipolar spindles,MDA-231 cells; CA added to cells plated on FN 30 μg/ml,reversed
"C/C1=C/C(=O)O[C@@H]2C[C@@H](CC[C@H](C)/C=C\C=C\CC1)O[C@@](O)([C@@H]1CSC(=O)N1)C2 [LatA, Latrunculin]",spindle multipolarity,S2 cells [1]; LatA treatment in Ned or Bj1/RCC1-depleted cells,combinatorial increase
same,delay in centrosome clustering relative to controls,S2 cells [3]; 13/15 LatA-treated cells,1.5 fold
same,time of centrosome clustering,"S2 cells [3]; 13/15 LatA-treated cells, controls 14.7±6.4 min",22.1 ± 12.3 min
same,cells that completely failed to cluster extra centrosomes,S2 cells [3]; LatA-treated cells,2/15
same,frequency of multipolar spindles,[2]; [4],significant increase
C=C1[C@@H](C)[C@H]2[C@H](Cc3ccccc3)NC(=O)[C@]23OC(=O)CC[C@H](O)CCC[C@@H](C)C/C=C/[C@H]3[C@@H]1O [Dihydrocytochalasin B],frequency of multipolar spindles,[2]; [4],significant increase

# — patent US9645136B2, “Methods of treating a meiotic kinesin-associated disease” (DANA-FARBER CANCER INSTITUTE, INC., priority 2008, dated 2017)
